Reference: patent publication US12692238B2, “Substituted pyridazinone herbicides” (FMC CORPORATION, priority 2020, dated 2026)

Assays:
Format in all cases: in vivo
[1] = test system: barnyardgrass (Echinochloa crus-galli); assay: Test A preemergence, barnyardgrass; conditions: 10 days
Excerpt: (§1) Seeds of plant species selected from barnyardgrass (Echinochloa crus-galli), blackgrass (Alopecurus myosuroides), corn (Zea mays), foxtail, giant (giant foxtail, Setaria faberi), foxtail, green (green foxtail, Setaria viridis), goosegrass (Eleusine indica), kochia (Bassia scoparia), oat, wild (wild oat, Avena fatua), palmer amaranth (pigweed, palmer, Amaranthus palmeri), redroot pigweed (Amaranthus retroflexus), ragweed (common ragweed, Ambrosia artemisiifolia), ryegrass, Italian (Italian ryegrass, Lolium multiflorum), and soybean (Glycine max) were planted into a blend of loam soil and sand and treated preemergence with a directed soil spray using test chemicals formulated in a non-phytotoxic solvent mixture which included a surfactant.
(§2) At the same time, plants selected from these crop and weed species and also wheat (Triticum aestivum), galium (catchweed bedstraw, Galium aparine) and horseweed (Erigeron canadensis) were planted in pots containing the same blend of loam soil and sand and treated with postemergence applications of test chemicals formulated in the same manner. Plants ranged in height from 2 to 10 cm and were in the one- to two-leaf stage for the postemergence treatment. Treated plants and untreated controls were maintained in a greenhouse for 10 days, after which time all treated plants were compared to untreated controls and visually evaluated for injury. Plant response ratings, summarized in Table A, are based on a 0 to 100 scale where 0 is no effect and 100 is complete control. A dash (-) response means no test result.

[2] = test system: foxtail, giant (giant foxtail, Setaria faberi); assay: Test A preemergence, foxtail, giant; conditions: 0 to 100 scale, 10 days
Excerpt: as §1, §2

[3] = test system: kochia (Bassia scoparia); assay: Test A preemergence, kochia; conditions: 0 to 100 scale, 10 days
Excerpt: as §1, §2

[4] = test system: redroot pigweed (Amaranthus retroflexus); assay: Test A preemergence, redroot pigweed; conditions: 0 to 100 scale, 10 days
Excerpt: as §1, §2

[5] = test system: ragweed (common ragweed, Ambrosia artemisiifolia); assay: Test A preemergence, ragweed; conditions: 0 to 100 scale, 10 days
Excerpt: as §1, §2

[6] = test system: ryegrass, Italian (Italian ryegrass, Lolium multiflorum); assay: Test A preemergence, ryegrass, Italian; conditions: 0 to 100 scale, 10 days
Excerpt: as §1, §2

[7] = test system: barnyardgrass (Echinochloa crus-galli); assay: Test A postemergence, barnyardgrass; conditions: 10 days
Excerpt: as §1, §2

[8] = test system: blackgrass (Alopecurus myosuroides); assay: Test A postemergence, blackgrass; conditions: 10 days
Excerpt: as §1, §2

[9] = test system: corn (Zea mays); assay: Test A postemergence, corn; conditions: 10 days
Excerpt: as §1, §2

[10] = test system: foxtail, giant (giant foxtail, Setaria faberi); assay: Test A postemergence, foxtail, giant; conditions: 10 days
Excerpt: as §1, §2

[11] = test system: kochia (Bassia scoparia); assay: Test A postemergence, kochia; conditions: 10 days
Excerpt: as §1, §2

[12] = test system: redroot pigweed (Amaranthus retroflexus); assay: Test A postemergence, redroot pigweed; conditions: 10 days
Excerpt: as §1, §2

[13] = test system: ragweed (common ragweed, Ambrosia artemisiifolia); assay: Test A postemergence, ragweed; conditions: 10 days
Excerpt: as §1, §2

[14] = test system: ryegrass, Italian (Italian ryegrass, Lolium multiflorum); assay: Test A postemergence, ryegrass, Italian; conditions: 10 days
Excerpt: as §1, §2

[15] = test system: wheat (Triticum aestivum); assay: Test A postemergence, wheat; conditions: 10 days
Excerpt: as §1, §2

[16] = test system: galium (catchweed bedstraw, Galium aparine); assay: Test A postemergence, galium; conditions: 10 days
Excerpt: as §1, §2

[17] = test system: barnyardgrass (Echinochloa crus-galli); assay: Test B flooded paddy test, barnyardgrass; conditions: 250 g ai/ha, Flood; visually evaluated after 10 to 14 days
Procedure: (§3) Plant species in the flooded paddy test selected from barnyardgrass (Echinochloa crus-galli), ducksalad (Heteranthera limosa), rice (Oryza sativa), and sedge, umbrella (small-flower umbrella sedge, Cyperus difformis) were grown to the 2-leaf stage for testing. At time of treatment, test pots were flooded to 3 cm above the soil surface, treated by application of test compounds directly to the paddy water, and then maintained at that water depth for the duration of the test. Treated plants and controls were maintained in a greenhouse for 10 to 14 days, after which time all species were compared to controls and visually evaluated. Plant response ratings, summarized in Table B, are based on a scale of 0 to 100 where 0 is no effect and 100 is complete control. A dash (-) response means no test result.

[18] = test system: ducksalad (Heteranthera limosa); assay: Test B flooded paddy test, ducksalad; conditions: 250 g ai/ha, Flood; visually evaluated after 10 to 14 days
Procedure: as §3

[19] = test system: rice (Oryza sativa); assay: Test B flooded paddy test, rice; conditions: 250 g ai/ha, Flood; visually evaluated after 10 to 14 days
Procedure: as §3

[20] = test system: sedge, umbrella (small-flower umbrella sedge, Cyperus difformis); assay: Test B flooded paddy test, sedge, umbrella; conditions: 250 g ai/ha, Flood; visually evaluated after 10 to 14 days
Procedure: as §3

[21] = 125 g ai/ha, 0 to 100 scale (0 no effect, 100 complete control)
[22] = 31 g ai/ha, postemergence, 0 to 100 scale (0 no effect, 100 complete control)
[23] = Postemergence, 125 g ai/ha, 0 to 100 scale
[24] = Postemergence, 31 g ai/ha, 0 to 100 scale

Structure (SMILES) | Plant response rating, Barnyardgrass ([1]; 31 g ai/ha, 0 to 100 scale) | Plant response rating, Barnyardgrass [1, 21] | Plant response rating, Foxtail, Giant ([2]; 31 g ai/ha) | Plant response rating, Foxtail, Giant ([2]; 125 g ai/ha) | Plant response rating, Kochia ([3]; 31 g ai/ha) | Plant response rating, Kochia ([3]; 125 g ai/ha) | Plant response rating, Pigweed, Redroot ([4]; 31 g ai/ha) | Plant response rating, Pigweed, Redroot ([4]; 125 g ai/ha) | Plant response rating, Ryegrass, Italian ([6]; 31 g ai/ha) | Plant response rating, Ryegrass, Italian ([6]; 125 g ai/ha) | Plant response rating, Barnyardgrass [7, 23] | Plant response rating, Blackgrass [8, 23] | Plant response rating, Corn [9, 23] | Plant response rating, Foxtail, Giant [10, 23] | Plant response rating, Kochia [11, 22] | Plant response rating, Kochia [11, 23] | Plant response rating, Pigweed, Redroot [12, 22] | Plant response rating, Pigweed, Redroot [12, 23] | Plant response rating, Ragweed [13, 22] | Plant response rating, Ragweed [13, 23] | also measured
COc1cc(OC)c2cc3ccc(F)cc3c(-c3c(OCOC(C)=O)c(C)nn(C)c3=O)c2c1 [Compound 25] | 0 | 0 | 0 | 0 | 0 | 0 | 0 | 30 | 0 | 0 | 10 | 10 | 20 | 20 | 0 | 10 | 80 | 90 | 0 | 0 | Plant response rating, Ragweed ([5]; 31 g ai/ha): 0; Plant response rating, Ragweed ([5]; 125 g ai/ha): 0; Plant response rating, Barnyardgrass [7, 22]: 0; Plant response rating, Blackgrass [8, 22]: 0; Plant response rating, Corn [9, 22]: 0; Plant response rating, Foxtail, Giant [10, 22]: 0; Plant response rating, Ryegrass, Italian [14, 22]: 0; Plant response rating, Ryegrass, Italian [14, 23]: 0; Plant response rating, Wheat [15, 22]: 0; Plant response rating, Wheat [15, 23]: 0; Plant response rating, Galium [16, 22]: 50; Plant response rating, Galium [16, 23]: 60; Plant response rating, Barnyardgrass (0 to 100 scale where 0 is no effect and 100 is complete control) [17]: 0; Plant response rating, Ducksalad (0 to 100 scale where 0 is no effect and 100 is complete control) [18]: 0; Plant response rating, Rice (0 to 100 scale where 0 is no effect and 100 is complete control) [19]: 0; Plant response rating, Sedge, Umbrella (0 to 100 scale where 0 is no effect and 100 is complete control) [20]: 0
CC(=O)OCOc1c(C)nn(C)c(=O)c1-c1c2ccccc2cc2ccccc12 [Compound 13] | 0 | 30 | 0 | 20 | 0 | 0 | 100 | 100 | 30 | 70 | 40 | 40 | 0 | 60 | 10 | 50 | 100 | 100 | 90 | 100 | Plant response rating, Barnyardgrass [7, 24]: 10; Plant response rating, Blackgrass [8, 24]: 0; Plant response rating, Corn [9, 24]: 0; Plant response rating, Foxtail, Giant [10, 24]: 10; Plant response rating, Ryegrass, Italian [14, 22]: 70; Plant response rating, Ryegrass, Italian [14, 23]: 100; Plant response rating, Wheat [15, 22]: 0; Plant response rating, Wheat [15, 23]: 0; Plant response rating, Galium [16, 22]: 100; Plant response rating, Galium [16, 23]: 100; Plant response rating, Barnyardgrass (0 to 100 scale where 0 is no effect and 100 is complete control) [17]: 0; Plant response rating, Ducksalad (0 to 100 scale where 0 is no effect and 100 is complete control) [18]: 0; Plant response rating, Rice (0 to 100 scale where 0 is no effect and 100 is complete control) [19]: 0; Plant response rating, Sedge, Umbrella (0 to 100 scale where 0 is no effect and 100 is complete control) [20]: 0
